Reference: patent publication US7476677B2, “Substituted thieno- and thiazolo- [2,3-d]pyrimidines and [2,3-c]pyridines as inhibitors of Tie2” (AstraZeneca AB, priority 2004, dated 2009)

Experiments:
Tie2 receptor = target: T1, Tie2 receptor (Homo sapiens, UniProt Q02763); test: Cellular Tie2 autophosphorylation assay (Test (b)); format: cell-based; settings: Ang1 ligand stimulated Tie2 autophosphorylation, e.g. EA.hy926/B3 cells, western blot
T1 construct: one can use natural cell lines or primary cells which are known to express the receptor of choice; endogenous in cells; host or cells: EA.hy926/B3 cells (HUVEC named as alternative)
T1 sequence (Q02763 23-1124): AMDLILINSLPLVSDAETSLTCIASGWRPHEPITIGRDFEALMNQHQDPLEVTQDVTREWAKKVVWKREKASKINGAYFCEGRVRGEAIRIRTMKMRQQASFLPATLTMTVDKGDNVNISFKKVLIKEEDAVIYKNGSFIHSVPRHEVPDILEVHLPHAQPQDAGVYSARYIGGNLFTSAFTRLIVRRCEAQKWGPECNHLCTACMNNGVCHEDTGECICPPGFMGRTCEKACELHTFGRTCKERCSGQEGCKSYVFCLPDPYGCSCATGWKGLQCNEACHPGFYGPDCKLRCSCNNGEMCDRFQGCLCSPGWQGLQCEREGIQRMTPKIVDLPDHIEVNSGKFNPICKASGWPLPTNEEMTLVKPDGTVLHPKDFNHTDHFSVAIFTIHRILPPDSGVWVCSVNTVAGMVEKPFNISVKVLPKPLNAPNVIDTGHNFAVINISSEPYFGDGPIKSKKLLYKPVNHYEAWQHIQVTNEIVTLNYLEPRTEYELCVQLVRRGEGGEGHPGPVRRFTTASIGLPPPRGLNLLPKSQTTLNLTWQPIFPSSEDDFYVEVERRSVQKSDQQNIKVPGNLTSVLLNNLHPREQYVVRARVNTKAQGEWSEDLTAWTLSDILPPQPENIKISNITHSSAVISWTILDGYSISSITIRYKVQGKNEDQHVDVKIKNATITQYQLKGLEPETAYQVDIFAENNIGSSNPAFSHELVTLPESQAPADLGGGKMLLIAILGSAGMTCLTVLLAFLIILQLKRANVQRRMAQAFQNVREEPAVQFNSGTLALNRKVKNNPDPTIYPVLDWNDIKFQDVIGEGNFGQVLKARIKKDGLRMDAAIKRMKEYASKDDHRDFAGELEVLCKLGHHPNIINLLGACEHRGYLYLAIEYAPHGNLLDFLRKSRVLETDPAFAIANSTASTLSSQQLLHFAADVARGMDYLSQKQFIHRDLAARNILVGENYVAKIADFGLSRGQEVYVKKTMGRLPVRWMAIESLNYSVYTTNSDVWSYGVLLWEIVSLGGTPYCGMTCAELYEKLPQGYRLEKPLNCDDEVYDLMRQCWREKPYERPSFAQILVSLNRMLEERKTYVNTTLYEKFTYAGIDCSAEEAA
Excerpt: b. Cellular Tie2 Autophosphorylation Assay
This assay is based on measuring the ability of compounds to inhibit autophosphorylation of the Tie2 receptor which normally leads to the production of “activated” receptor that in turn initiates the particular signal transduction pathways associated with the receptor function.
Autophosphorylation can be achieved by a number of means. It is known that expression of recombinant kinase domains in baculoviral systems can lead to the production of phosphorylated and activated receptor. […] In these cases the natural, external cell surface domain of the receptor has been replaced with that of a domain which is known to be readily dimerised via the addition of the appropriate ligand (e.g. TrkA-Tie2/NGF ligand (Marron, M. B., et al., 2000 Journal of Biological Chemistry: 275:39741-39746) or C-fms-Tie-1/CSF-1 ligand (Kontos, C. D., et al., 2002 Molecular and Cellular Biology: 22, 1704-1713). Thus when the chimaeric receptor expressed in a host cell line and the respective ligand is added, this induces autophosphorylation of the chimeric receptor's kinase domain. This approach has the advantage of often allowing a known (and often easily obtained) ligand to be used instead of having to identify and isolate the natural ligand for each receptor of interest. […]

[1] = target: T2, Tie2 receptor tyrosine kinase (Homo sapiens, UniProt Q02763); test: In vitro receptor tyrosine kinase inhibition assay (Test (a), ELISA based); format: biochemical; settings: recombinant human kinase domain lysate, synthetic peptide substrate, ATP 5 micromolar or Km
T2 construct: consist of only the intracellular portion C-terminal portion of the respective receptor, within which is found the kinase domain; made in house; host or cells: baculovirus/Sf21 insect cells, used as cleared lysate
T2 sequence (Q02763 770-1124 limits assumed): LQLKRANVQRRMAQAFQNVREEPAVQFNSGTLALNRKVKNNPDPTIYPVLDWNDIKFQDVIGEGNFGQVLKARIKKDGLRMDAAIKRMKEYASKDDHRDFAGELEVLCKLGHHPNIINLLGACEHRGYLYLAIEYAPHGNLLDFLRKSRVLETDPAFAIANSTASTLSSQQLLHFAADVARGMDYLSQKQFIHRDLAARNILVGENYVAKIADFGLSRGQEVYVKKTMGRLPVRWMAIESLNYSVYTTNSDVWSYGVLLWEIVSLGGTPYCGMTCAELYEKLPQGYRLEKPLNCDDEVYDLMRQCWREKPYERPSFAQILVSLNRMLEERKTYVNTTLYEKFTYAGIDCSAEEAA
Method: a. In Vitro Receptor Tyrosine Kinase Inhibition Assay
To test for inhibition of Tie2 receptor tyrosine kinase, compounds are evaluated in a non-cell based protein kinase assay by their ability to inhibit the protein kinase enzyme phosphorylation of a tyrosine containing polypeptide substrate in an ELISA based microtitre plate assay. In this particular case, the assay was to determine the IC50, for three different recombinant human tyrosine kinases Tie2, KDR and Flt.
To facilitate production of the tyrosine kinases, recombinant receptor genes were produced using standard molecular biology cloning and mutagenesis techniques. […]
Constitutive kinase activity of these recombinant proteins was determined by their ability to phosphorylate a synthetic peptide (made up of a random co-polymer of Glutamic Acid, Alanine and Tyrosine in the ratio of 6:3:1). […]
The immobilised phospho-peptide product of the reaction was detected by immunological methods. […] Following extensive washing with PBS-T, HRP activity in each well of the plate was measured colorimetrically using 22′-Azino-di-[3-ethylbenzthiazoline sulfonate (6)] diammonium salt crystals ABTS (Sigma P4922—prepared as per manufactures instructions) as a substrate incubated for 30-45 minutes to allow colour development, before 100 ul of 1M H2SO4 was added to stop the reaction. […]

IC50 (Tie2 receptor): 0.4 µM | IC50 [1]: 16 µM
SMILES: Cn1cnc(-c2cccc(NC(=O)Nc3cccc(F)c3)c2)c1-c1cc2c(N)ncnc2s1 [Example 1, N-{3-[5-(4-Aminothieno[2,3-d]pyrimidin-6-yl)-1-methyl-1H-imidazol-4-yl]phenyl}-N′-(3-fluorophenol)urea]
